Experimental data published in ChEMBL document CHEMBL1123714, “Potential antitumor agents. 48. 3'-Dimethylamino derivatives of amsacrine: redox chemistry and in vivo solid tumor activity” (J Med Chem, 1987).

Test: physchem
Conditions: 20% DMF

| pKa | Compound |
| --- | --- |
| 7.25 | CN(C)c1cc(NS(C)(=O)=O)ccc1Nc1c2ccccc2nc2ccccc12 |
| 7.47 | CNc1cc(NS(C)(=O)=O)ccc1Nc1c2ccccc2nc2ccccc12 |
